# Reference: patent US20250101023A1, “HETEROARYL DERIVATIVE AND USES THEREOF” (IUCF-HYU (INDUSTRY-UNIVERSITY COOPERATION FOUNDATION …, priority 2022, published 2025)
# How the values were obtained:
# HCC1954 cells = assay: Breast cancer growth inhibitory activity (Cell-titer Glo, 72 h); type: cell-based; conditions: Homo sapiens, read-out: HCC1954 GI50
# How it was run: (§1)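 Cells seeded at 2,500 (SK-Br3) or 1,000 (HCC1954) per well and grown 24 h before treatment. Viability read by Cell-titer Glo luminescence; IC50 from titration curve fitting.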
# SK-Br3 cells = assay: as above; type: cell-based; conditions: Homo sapiens, SK-BR-3; read-out: SK-Br3 GI50
# How it was run: as §1
# CYP1A2 = CYP1A2 (Homo sapiens (Human), UniProt P05177); assay: in vitro; type: in vitro ADME
# Experimental: 5 derivatives were evaluated for in vitro metabolic stability in liver microsomes from three different species (human, dog, mouse) and for inhibitory activity against 5 representative cytochrome P450 enzymes (CYPs)(Table 3). In terms of liver microsomal stability, the 2′-pyridyl group is more suitable than the α-methyl-4′-pyridyl group as the terminal aromatic group at position 6, and the aminopyrimidyl group is better than the aminopyridyl group as a substituent at position 2.
# CDK1/cyclin B = CDK1/cyclin B (Homo sapiens (Human), UniProt P06493); assay: Kinome-wide profiling; type: biochemical; conditions: read-out: % Residual Activity (mean)
# EPHB2 = EPHB2 (Homo sapiens (Human), UniProt P29323); assay: Kinome-wide profiling; type: biochemical; conditions: read-out: % Residual Activity (mean)
# EPHA5 = EPHA5 (Homo sapiens (Human), UniProt P54756); assay: Kinome-wide profiling; type: biochemical; conditions: read-out: % Residual Activity (mean)
# FLT4/VEGFR3 = FLT4/VEGFR3 (Homo sapiens (Human), UniProt P35916); assay: Kinome-wide profiling; type: biochemical; conditions: read-out: % Residual Activity (mean)
# TYRO3/SKY = TYRO3/SKY (Homo sapiens (Human), UniProt Q06418); assay: Kinome-wide profiling; type: biochemical; conditions: read-out: % Residual Activity (mean)
# EPHB4 = EPHB4 (Homo sapiens (Human), UniProt P54760); assay: Kinome-wide profiling; type: biochemical; conditions: read-out: % Residual Activity (mean)
# MLK1/MAP3K9 = MLK1/MAP3K9 (Homo sapiens (Human), UniProt P80192); assay: Kinome-wide profiling; type: biochemical; conditions: read-out: % Residual Activity (mean)
# STK38/NDR1 = STK38/NDR1 (Homo sapiens (Human), UniProt Q15208); assay: Kinome-wide profiling; type: biochemical; conditions: read-out: % Residual Activity (mean)
# FLT1/VEGFR1 = FLT1/VEGFR1 (Homo sapiens (Human), UniProt P17948); assay: Kinome-wide profiling; type: biochemical; conditions: read-out: % Residual Activity (mean)
# STK38L/NDR2 = STK38L/NDR2 (Homo sapiens (Human), UniProt Q9Y2H1); assay: Kinome-wide profiling; type: biochemical; conditions: read-out: % Residual Activity (mean)
# FLT3 = FLT3 (Homo sapiens (Human), UniProt P36888); assay: Kinome-wide profiling; type: biochemical; conditions: read-out: % Residual Activity (mean)
# AXL = AXL (Homo sapiens (Human), UniProt P30530); assay: Kinome-wide profiling; type: biochemical; conditions: read-out: % Residual Activity (mean)
# GRK7 = GRK7 (Homo sapiens (Human), UniProt Q8WTQ7); assay: Kinome-wide profiling; type: biochemical; conditions: read-out: % Residual Activity (mean)
# MST2/STK3 = MST2/STK3 (Homo sapiens (Human), UniProt Q13188); assay: Kinome-wide profiling; type: biochemical; conditions: read-out: % Residual Activity (mean)
# LYN B = LYN B (Homo sapiens (Human), UniProt P07948); assay: Kinome-wide profiling; type: biochemical; conditions: read-out: % Residual Activity (mean)
# RSK3 = RSK3 (Homo sapiens (Human), UniProt Q15349); assay: Kinome-wide profiling; type: biochemical; conditions: read-out: % Residual Activity (mean)
# ABL1 = ABL1 (Homo sapiens (Human), UniProt P00519); assay: Kinome-wide profiling; type: biochemical; conditions: read-out: % Residual Activity (mean)
# RSK2 = RSK2 (Homo sapiens (Human), UniProt P51812); assay: Kinome-wide profiling; type: biochemical; conditions: read-out: % Residual Activity (mean)
# TLK2 = TLK2 (Homo sapiens (Human), UniProt Q86UE8); assay: Kinome-wide profiling; type: biochemical; conditions: read-out: % Residual Activity (mean)
# LCK = LCK (Homo sapiens (Human), UniProt P06239); assay: Kinome-wide profiling; type: biochemical; conditions: read-out: % Residual Activity (mean)
# TESK2 = TESK2 (Homo sapiens (Human), UniProt Q96S53); assay: Kinome-wide profiling; type: biochemical; conditions: read-out: % Residual Activity (mean)
# NEK3 = NEK3 (Homo sapiens (Human), UniProt P51956); assay: Kinome-wide profiling; type: biochemical; conditions: read-out: % Residual Activity (mean)
# PIM3 = PIM3 (Homo sapiens (Human), UniProt Q86V86); assay: Kinome-wide profiling; type: biochemical; conditions: read-out: % Residual Activity (mean)
# SSTK/TSSK6 = SSTK/TSSK6 (Homo sapiens (Human), UniProt Q9BXA6); assay: Kinome-wide profiling; type: biochemical; conditions: read-out: % Residual Activity (mean)
# p70S6K/RPS6KB1 = p70S6K/RPS6KB1 (Homo sapiens (Human), UniProt P23443); assay: Kinome-wide profiling; type: biochemical; conditions: read-out: % Residual Activity (mean)
# PKCepsilon = PKCepsilon (Homo sapiens (Human), UniProt Q02156); assay: Kinome-wide profiling; type: biochemical; conditions: read-out: % Residual Activity (mean)
# AKT1 = AKT1 (Homo sapiens (Human), UniProt P31749); assay: Kinome-wide profiling; type: biochemical; conditions: read-out: % Residual Activity (mean)
# MKK6 = MKK6 (Homo sapiens (Human), UniProt P52564); assay: Kinome-wide profiling; type: biochemical; conditions: read-out: % Residual Activity (mean)
# IRAK2 = IRAK2 (Homo sapiens (Human), UniProt O43187); assay: Kinome-wide profiling; type: biochemical; conditions: read-out: % Residual Activity (mean)
# GRK2 = GRK2 (Homo sapiens (Human), UniProt P25098); assay: Kinome-wide profiling; type: biochemical; conditions: read-out: % Residual Activity (mean)
# MEK2 = MEK2 (Homo sapiens (Human), UniProt P36507); assay: Kinome-wide profiling; type: biochemical; conditions: read-out: % Residual Activity (mean)
# p70S6K/RPS6KB1, sequence (P23443 whole entry): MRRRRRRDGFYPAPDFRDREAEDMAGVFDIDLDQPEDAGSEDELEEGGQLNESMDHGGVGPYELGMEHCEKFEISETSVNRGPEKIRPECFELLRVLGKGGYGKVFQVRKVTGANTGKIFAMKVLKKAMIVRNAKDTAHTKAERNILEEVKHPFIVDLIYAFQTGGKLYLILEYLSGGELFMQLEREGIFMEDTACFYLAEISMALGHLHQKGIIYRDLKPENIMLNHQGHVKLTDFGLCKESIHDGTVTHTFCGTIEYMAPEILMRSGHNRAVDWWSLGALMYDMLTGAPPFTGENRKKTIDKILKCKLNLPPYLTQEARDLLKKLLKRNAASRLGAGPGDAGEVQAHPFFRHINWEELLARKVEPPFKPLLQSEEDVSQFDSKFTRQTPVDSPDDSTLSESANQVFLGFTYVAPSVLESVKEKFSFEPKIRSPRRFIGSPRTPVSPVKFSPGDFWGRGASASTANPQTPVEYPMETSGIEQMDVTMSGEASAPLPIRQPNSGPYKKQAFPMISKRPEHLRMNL
# TLK2, sequence (Q86UE8 whole entry): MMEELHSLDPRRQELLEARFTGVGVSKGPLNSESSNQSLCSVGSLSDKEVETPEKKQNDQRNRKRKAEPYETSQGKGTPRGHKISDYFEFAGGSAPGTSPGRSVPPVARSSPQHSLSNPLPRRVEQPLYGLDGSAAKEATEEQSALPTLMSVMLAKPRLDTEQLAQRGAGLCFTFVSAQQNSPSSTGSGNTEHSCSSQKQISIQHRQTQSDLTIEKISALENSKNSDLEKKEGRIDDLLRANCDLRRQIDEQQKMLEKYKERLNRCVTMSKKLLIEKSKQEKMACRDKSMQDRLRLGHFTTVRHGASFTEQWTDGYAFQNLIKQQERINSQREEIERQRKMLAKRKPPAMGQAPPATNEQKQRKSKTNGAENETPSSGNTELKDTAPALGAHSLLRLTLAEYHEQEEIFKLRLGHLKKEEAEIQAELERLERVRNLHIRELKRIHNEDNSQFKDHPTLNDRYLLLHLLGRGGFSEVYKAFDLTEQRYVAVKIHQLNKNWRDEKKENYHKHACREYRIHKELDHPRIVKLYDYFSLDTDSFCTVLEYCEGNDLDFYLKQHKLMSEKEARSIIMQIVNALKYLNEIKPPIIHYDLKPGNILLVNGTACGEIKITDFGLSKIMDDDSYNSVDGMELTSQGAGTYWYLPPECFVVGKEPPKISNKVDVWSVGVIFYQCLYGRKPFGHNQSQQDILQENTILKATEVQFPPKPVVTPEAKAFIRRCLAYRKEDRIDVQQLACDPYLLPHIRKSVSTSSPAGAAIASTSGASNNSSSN
# AXL, sequence (P30530 26-894): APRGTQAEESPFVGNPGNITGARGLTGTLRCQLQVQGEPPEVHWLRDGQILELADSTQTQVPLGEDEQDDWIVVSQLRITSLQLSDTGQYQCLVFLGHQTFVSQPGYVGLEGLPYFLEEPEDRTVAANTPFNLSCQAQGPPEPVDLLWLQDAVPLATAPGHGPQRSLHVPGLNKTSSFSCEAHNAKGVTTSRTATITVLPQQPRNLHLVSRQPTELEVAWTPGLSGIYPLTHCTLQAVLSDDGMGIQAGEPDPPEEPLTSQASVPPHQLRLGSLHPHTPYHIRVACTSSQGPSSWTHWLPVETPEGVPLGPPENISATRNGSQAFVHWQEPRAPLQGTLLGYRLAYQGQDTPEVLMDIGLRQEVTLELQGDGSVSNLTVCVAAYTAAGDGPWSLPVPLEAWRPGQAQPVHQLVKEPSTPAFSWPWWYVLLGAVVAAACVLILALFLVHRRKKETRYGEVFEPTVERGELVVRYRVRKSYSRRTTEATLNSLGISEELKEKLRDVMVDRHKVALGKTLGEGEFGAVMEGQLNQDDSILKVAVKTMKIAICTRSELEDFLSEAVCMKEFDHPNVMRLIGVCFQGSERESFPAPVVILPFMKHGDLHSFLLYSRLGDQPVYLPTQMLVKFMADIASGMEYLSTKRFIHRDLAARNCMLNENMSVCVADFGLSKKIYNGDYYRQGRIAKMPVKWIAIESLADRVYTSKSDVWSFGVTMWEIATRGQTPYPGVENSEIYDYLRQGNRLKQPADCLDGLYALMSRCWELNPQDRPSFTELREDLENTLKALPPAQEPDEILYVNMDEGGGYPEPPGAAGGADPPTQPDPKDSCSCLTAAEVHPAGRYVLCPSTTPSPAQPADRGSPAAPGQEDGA
# LYN B, sequence (P07948 other isoform, or with tags, fused parts or gaps): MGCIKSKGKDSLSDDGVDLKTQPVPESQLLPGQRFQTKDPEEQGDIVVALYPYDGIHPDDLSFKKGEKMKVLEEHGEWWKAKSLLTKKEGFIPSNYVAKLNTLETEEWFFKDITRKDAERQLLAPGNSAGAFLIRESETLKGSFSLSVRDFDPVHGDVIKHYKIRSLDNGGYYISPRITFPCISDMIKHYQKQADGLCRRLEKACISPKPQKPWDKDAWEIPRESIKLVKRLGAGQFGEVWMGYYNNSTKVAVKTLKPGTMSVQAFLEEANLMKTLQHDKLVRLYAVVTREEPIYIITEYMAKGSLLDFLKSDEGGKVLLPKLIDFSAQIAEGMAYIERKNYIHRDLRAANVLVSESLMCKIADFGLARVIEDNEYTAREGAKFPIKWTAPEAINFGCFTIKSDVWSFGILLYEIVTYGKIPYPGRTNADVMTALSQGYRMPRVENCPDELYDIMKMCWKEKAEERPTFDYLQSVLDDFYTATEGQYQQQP
# LCK, sequence (P06239 whole entry): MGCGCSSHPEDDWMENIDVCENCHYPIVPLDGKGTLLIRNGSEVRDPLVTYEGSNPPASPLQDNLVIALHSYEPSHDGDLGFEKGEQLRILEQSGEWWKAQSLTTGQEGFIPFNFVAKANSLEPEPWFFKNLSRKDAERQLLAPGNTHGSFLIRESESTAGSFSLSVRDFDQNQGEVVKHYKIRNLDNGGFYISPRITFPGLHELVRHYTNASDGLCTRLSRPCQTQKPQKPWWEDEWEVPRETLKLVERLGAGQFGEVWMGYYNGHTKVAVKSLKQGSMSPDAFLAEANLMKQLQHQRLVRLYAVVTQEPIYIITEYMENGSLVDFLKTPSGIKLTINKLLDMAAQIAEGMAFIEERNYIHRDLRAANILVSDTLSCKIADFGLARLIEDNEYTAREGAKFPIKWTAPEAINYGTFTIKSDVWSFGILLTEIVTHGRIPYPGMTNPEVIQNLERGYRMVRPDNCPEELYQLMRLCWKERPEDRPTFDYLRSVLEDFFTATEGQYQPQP
# FLT1/VEGFR1, sequence (P17948 27-1338): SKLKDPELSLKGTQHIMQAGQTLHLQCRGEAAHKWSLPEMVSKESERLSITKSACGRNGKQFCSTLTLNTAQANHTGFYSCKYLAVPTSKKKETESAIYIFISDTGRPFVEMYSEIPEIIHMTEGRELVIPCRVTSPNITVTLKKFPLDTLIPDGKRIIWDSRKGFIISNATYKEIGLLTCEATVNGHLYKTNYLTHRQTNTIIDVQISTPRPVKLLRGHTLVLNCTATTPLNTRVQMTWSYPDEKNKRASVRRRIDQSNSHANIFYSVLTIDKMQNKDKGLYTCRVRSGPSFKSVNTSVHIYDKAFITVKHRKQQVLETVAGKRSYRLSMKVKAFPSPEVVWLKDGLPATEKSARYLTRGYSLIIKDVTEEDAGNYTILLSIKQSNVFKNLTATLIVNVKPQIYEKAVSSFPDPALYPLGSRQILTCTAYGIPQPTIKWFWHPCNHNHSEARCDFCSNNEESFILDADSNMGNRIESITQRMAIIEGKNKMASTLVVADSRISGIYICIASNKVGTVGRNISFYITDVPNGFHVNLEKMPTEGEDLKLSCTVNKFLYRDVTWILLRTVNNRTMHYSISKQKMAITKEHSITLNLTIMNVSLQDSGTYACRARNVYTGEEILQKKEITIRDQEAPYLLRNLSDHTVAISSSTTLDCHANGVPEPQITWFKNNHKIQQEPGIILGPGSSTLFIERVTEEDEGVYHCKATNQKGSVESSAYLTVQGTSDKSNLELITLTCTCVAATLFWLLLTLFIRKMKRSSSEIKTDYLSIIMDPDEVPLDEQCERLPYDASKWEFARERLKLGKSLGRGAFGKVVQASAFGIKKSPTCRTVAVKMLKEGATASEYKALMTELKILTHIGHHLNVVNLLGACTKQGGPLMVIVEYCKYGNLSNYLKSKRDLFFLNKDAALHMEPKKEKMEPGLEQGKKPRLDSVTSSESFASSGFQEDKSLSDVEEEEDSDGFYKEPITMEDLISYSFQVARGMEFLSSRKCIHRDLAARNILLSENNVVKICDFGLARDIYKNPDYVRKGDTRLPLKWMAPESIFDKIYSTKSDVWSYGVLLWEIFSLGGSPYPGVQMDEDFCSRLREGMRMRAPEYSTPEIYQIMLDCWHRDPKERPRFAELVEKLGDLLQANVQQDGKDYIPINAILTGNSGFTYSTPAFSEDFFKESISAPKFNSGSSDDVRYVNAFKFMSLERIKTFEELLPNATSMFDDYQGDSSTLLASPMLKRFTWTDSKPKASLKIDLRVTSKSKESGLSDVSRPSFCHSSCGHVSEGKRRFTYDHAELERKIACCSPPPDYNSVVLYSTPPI
# STK38L/NDR2, sequence (Q9Y2H1 whole entry): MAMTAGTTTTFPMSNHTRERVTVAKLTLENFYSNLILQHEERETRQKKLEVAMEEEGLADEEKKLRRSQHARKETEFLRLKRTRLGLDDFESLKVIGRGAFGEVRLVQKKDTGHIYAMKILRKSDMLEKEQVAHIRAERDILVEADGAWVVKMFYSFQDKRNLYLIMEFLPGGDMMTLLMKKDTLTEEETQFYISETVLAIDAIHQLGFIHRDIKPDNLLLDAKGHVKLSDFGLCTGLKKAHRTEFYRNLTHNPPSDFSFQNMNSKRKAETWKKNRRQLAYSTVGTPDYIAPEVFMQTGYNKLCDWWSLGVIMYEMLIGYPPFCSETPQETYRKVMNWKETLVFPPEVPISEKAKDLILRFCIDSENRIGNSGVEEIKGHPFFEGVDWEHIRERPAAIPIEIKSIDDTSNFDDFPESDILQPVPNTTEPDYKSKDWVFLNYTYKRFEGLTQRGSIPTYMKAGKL
smiles,measurement,setting,value
"CCn1cnc2c(NCc3ccc(-c4ccccn4)nc3)nc(-c3ccc(N)nc3)nc21 [Example 53, N-([2,2′-bipyridin]-5-ylmethyl)-2-(6-aminopyridin-3-yl)-9-ethyl-9H-purin-6-amine]",GI50,HCC1954 cells,0.036 µM
same,GI50,SK-Br3 cells,0.038 µM
same,activity at 10 µM,CYP1A2,74.7%
same,remaining activity at 10 µM,CDK1/cyclin B,2.06%
same,remaining activity at 10 µM,EPHB2,2.52%
same,remaining activity at 10 µM,EPHA5,5.86%
same,remaining activity at 10 µM,FLT4/VEGFR3,10%
same,remaining activity at 10 µM,TYRO3/SKY,22.4%
same,remaining activity at 10 µM,EPHB4,23.2%
same,remaining activity at 10 µM,MLK1/MAP3K9,27.9%
same,remaining activity at 10 µM,STK38/NDR1,28.3%
same,remaining activity at 10 µM,FLT1/VEGFR1,36.3%
same,remaining activity at 10 µM,STK38L/NDR2,36.9%
same,remaining activity at 10 µM,FLT3,40.2%
same,remaining activity at 10 µM,AXL,44.2%
same,remaining activity at 10 µM,GRK7,49.7%
same,remaining activity at 10 µM,MST2/STK3,53.5%
same,remaining activity at 10 µM,LYN B,54.4%
same,remaining activity at 10 µM,RSK3,58%
same,remaining activity at 10 µM,ABL1,61.2%
same,remaining activity at 10 µM,RSK2,69.4%
same,remaining activity at 10 µM,TLK2,72.2%
same,remaining activity at 10 µM,LCK,83.6%
same,remaining activity at 10 µM,TESK2,83.7%
same,remaining activity at 10 µM,NEK3,86.6%
same,remaining activity at 10 µM,PIM3,86.7%
same,remaining activity at 10 µM,SSTK/TSSK6,86.9%
same,remaining activity at 10 µM,p70S6K/RPS6KB1,92.1%
same,remaining activity at 10 µM,PKCepsilon,94.1%
same,remaining activity at 10 µM,AKT1,94.9%
same,remaining activity at 10 µM,MKK6,95.4%
same,remaining activity at 10 µM,IRAK2,97.5%
same,remaining activity at 10 µM,GRK2,99.1%
same,remaining activity at 10 µM,MEK2,176%
